Test results from US20170280720A1, “ARGININE […] INHIBITORS AND USES THEREOF” (EPIZYME, INC., priority 2014, published 2017).
Counter-ions that a name gives are not always drawn.

Target: T1, Human CARM1 (PRMT4) (Homo sapiens, UniProt Q86X55)
T1 construct: Flag-CARM1-His; made in house; host or cells: HEK 293F cells (BacMam baculovirus, pFastBacMam)
T1 sequence (Q86X55 2-585 isoform Q86X55-1): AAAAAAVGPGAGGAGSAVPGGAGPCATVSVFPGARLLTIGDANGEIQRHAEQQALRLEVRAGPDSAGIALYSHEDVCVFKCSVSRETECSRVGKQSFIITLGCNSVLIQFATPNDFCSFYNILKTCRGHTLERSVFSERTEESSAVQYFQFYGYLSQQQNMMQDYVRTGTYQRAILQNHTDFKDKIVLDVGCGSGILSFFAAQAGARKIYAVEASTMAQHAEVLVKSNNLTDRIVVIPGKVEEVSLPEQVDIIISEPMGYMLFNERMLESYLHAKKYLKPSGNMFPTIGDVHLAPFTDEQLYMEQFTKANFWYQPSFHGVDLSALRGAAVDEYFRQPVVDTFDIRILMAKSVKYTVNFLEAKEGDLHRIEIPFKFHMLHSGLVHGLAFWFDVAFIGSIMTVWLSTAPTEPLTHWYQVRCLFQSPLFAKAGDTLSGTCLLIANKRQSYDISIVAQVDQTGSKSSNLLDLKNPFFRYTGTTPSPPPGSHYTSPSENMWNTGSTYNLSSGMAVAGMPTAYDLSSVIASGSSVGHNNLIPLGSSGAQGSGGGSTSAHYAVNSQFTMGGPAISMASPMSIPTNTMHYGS
Assay: CARM1 biochemical assay (3H-SAM Flashplate, peptide substrate)
Details: read-out: CARM1_ IC50
Summary of the method: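 FLAG/His-tagged human CARM1 (isoform 1, Δ539-561, baculovirus-expressed), 0.25 nM, preincubated 30 min at room temperature with compound (2% DMSO) in 20 mM Bicine pH 7.6, then reacted with 30 nM 3H-SAM and 250 nM biotinylated H3 16-30 peptide (R26 monomethyl). Stopped with 300 uM cold SAM; labelled peptide captured on streptavidin Flashplate; % inhibition versus DMSO and 1 mM SAH controls fitted to a 4- or 3-parameter curve.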

Compound | IC50 [nM]
CNCCN(C)Cc1cccc(-c2cc(-c3cnn(C)c3)c3cnn(C(C)C)c3n2)c1 [Compound 49, N1-(3-(1-isopropyl-4-(1-methyl-1H-pyrazol-4-yl)-1H-pyrazolo[3,4-b]pyridin-6-yl)benzyl)-N1,N2-dimethylethane-1,2-diamine] | 12.4
CNCCN(C)Cc1cccc(-c2cc(C(=O)NCCCC(=O)NCC3CCOCC3)c3cnn(C(C)C)c3n2)c1 [Compound 60] | 17.2
CNCCN(C)Cc1cccc(-c2cc(N3CCOCC3)n3ncc(C(C)C)c3n2)c1 [Compound 62, N1-(3-(3-isopropyl-7-morpholinopyrazolo[1,5-a]pyrimidin-5-yl)benzyl)-N1,N2-dimethylethane-1,2-diamine formate] | 20.8
CNCCN(C)Cc1cccc(-c2cc(N3CCOCC3)c3cnn(C(C)C)c3n2)c1 [Compound 68] | 9.84
CNCCN(C)Cc1cccc(-c2ccc3nc[nH]c3c2)c1 [Compound 75] | 10000
CC(C)n1ncc2c(C(=O)NCc3ccccc3F)cc(-c3cccc(CN(C)CCN)c3)nc21 [Compound 65] | 8.39
NCCNCc1ccc(-c2ccc3ncn(CC4CCNCC4)c3c2)cc1 [Compound 70] | 11700
CC(C)n1ncc2c(NC(=O)OCc3ccccc3)cc(-c3cccc(CN(C)CCN)c3)nc21 [Compound 84] | 13.7
CNCCN(C)Cc1cccc(-c2cc(-c3ccoc3)c3cnn(C(C)C)c3n2)c1 [Compound 67] | 28.1
CNCCN(C)Cc1cccc(-c2cc(C(=O)NCCC(=O)NCC3CCOCC3)c3cnn(C(C)C)c3n2)c1 [Compound 64] | 24.9
CNCCN(C)Cc1cccc(-c2nc(NCc3ccccn3)c3cnn(C4CC4)c3n2)c1 [Compound 9] | 7.59
CCOC(=O)c1cc(-c2cccc(CN(C)CCNC)c2)nc2c1cnn2C(C)C [Compound 78] | 18
CNCCN(C)Cc1cccc(-c2cc(C(=O)N3CCCCC3)c3cnn(C(C)C)c3n2)c1 [Compound 56] | 219
CNCCN(C)Cc1cccc(-c2cc(N3CCC3)c3cnn(C(C)C)c3n2)c1 [Compound 79] | 14.5
CNCCN(C)Cc1cccc(-c2cc(N3CCC(OC)CC3)c3cnn(C(C)C)c3n2)c1 [Compound 51] | 16.7
COC(=O)Nc1cc(-c2cccc(CN(C)CCN)c2)nc2c1cnn2C(C)C [Compound 71] | 10.6

Next, values leading:

IC50 [nM] | Compound
75.5 | CNCCN(C)Cc1cccc(-c2cc(OC)c3cnn(C(C)C)c3n2)c1 [Compound 124]
6490 | CNCCN(C)Cc1cccc(-c2ccc3ncn(C)c3c2)c1 [Compound 92]
4120 | NCCNCc1ccc(-c2ccc3ncn(Cc4ccc(C(=O)N5CCCC5)cc4)c3c2)cc1 [Compound 104]
11.3 | CNCCN(C)Cc1cccc(-c2nc(N3CCOCC3)c3cnn(C(C)C)c3n2)c1 [Compound 99]
10.4 | CC(C)n1ncc2c(C(=O)NCC3CCOCC3)cc(-c3cccc(CN(C)CCN)c3)nc21 [Compound 108]
14900 | Cc1cccc(-n2cnc3ccc(-c4ccc(CNCCN)cc4)cc32)c1 [Compound 106]
10600 | COc1cccc(-n2cnc3ccc(-c4ccc(CNCCN)cc4)cc32)c1 [Compound 110]
5.02 | CNCCN(C)Cc1cccc(-c2nc(N(C)C3CCOCC3)c3cnn(C4CC4)c3n2)c1 [Compound 109, N1-(3-(1-cyclopropyl-4-(methyl(tetrahydro-2H-pyran-4-yl)amino)-1H-pyrazolo[3,4-d]pyrimidin-6-yl)benzyl)-N1,N2-dimethylethane-1,2-diamine]
